Reference: patent US20240002379A1, “ASYMMETRIC CONJUGATE COMPOUNDS” (Pheon Therapeutics Ltd., priority 2016, published 2024)

Columns and labels:
[1] = system: fluorescently labelled DNA duplex 5′-[…]-3′; experiment: FRET DNA melting, FIG. 13 top duplex (interstrand); format: binding
Description: (§1) FRET DNA melting studies were undertaken on 13 using two fluorescently labelled sequences. The sequences (FIG. 13) were designed to provide additional evidence that 13 can form inter- and intrastrand cross-links. Inosines were inserted in place of traditional DNA bases to limit the number of binding sites available for 13 to interact with.
(§2) Oligonucleotides were obtained from ATDbio (Southampton, UK) in lyophilised form. They were labelled with a fluorophore molecule (F=fluorescein) at the 5′-end and a quencher molecule (Q=dabcyl) at the 3′-end of the complementary strand. Each oligonucleotide was dissolved in distilled H2O to form stock solutions of 100 PM. Working solutions of 5 μM were prepared by diluting the stock solution with distilled H2O. […]
(§3) The reaction mixture was comprised of 4 μL of 250 mM phosphate buffer (final concentration of 50 mM), 4 μL flourophor and 4 μL quencher molecule of the appropriate oligonucleotide for a final concentration of 0.2 PM, 4 μL 5 M sodium chloride (final concentration of 1 M NaCl), and 4 μL of distilled H2O. […] This mixture was analysed without prior annealing.
(§4) Fluorescence melting profiles were measured using a Roche LightCycler using a total reaction volume of 20 μL. […] Annealing steps and melting steps were all recorded and changes in fluorescence were measured at 520 nm. […]

[2] = system: fluorescently labelled DNA duplex 5′-[…]-3′; experiment: FRET DNA melting, FIG. 13 bottom duplex (intrastrand); format: binding
Description: as §1, §2, §3, §4

[3] = system: LIM1215 cell line (gastric); experiment: MTT cytotoxicity assay, LIM1215; format: cell-based; details: LIM1215; MTT assay, 72 hour incubation; read-out: Cytotoxicity LIM1215 (72 hours)
In short: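 Cells seeded at 1800/well in RPMI1640 + 10% FBS, adhered overnight, then exposed to compound 72 h at 37° C. Survival by MTT (500 μg/ml, 4 h), formazan in DMSO read at 540 nm, blank-corrected versus untreated wells; IC50 read from concentration–survival plot.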

COc1cc2c(cc1OCCCC(=O)N1C[C@@H](CCl)c3c1cc(O)c1ccccc31)N=C[C@@H]1CCCCN1C2=O [Compound 13, (S)-3-(4-((S)-1-(Chloromethyl)-5-hydroxy-1,2-dihydro-3H-benzo[e]indol-3-yl)-4-oxobutoxy)-2-methoxy-7,8,9,10-tetrahydrobenzo[e]-pyrido[1,2-a][1,4]diazepin-12(6aH)-one]
change of melting temperature with compound concentration ([1]; FIG. 14 top panel): increases significantly
Tm value ([1]; duplex alone melts below 30° C., suggests interstrand cross-link): ~65 °C
change of melting temperature with compound concentration ([2]; FIG. 14 bottom panel): increases significantly
Tm value ([2]; duplex alone melts below 30° C., suggests intra-strand cross-link): 60 °C
IC50 [3]: 0.68 nM
